Results on 1 substance are retold here after article PMC12744750 (Plant Communications, 2025).

Data set [1] deals with ETR1:HA. Briefly: Co-IP competition: synthetic PLS vs PLS:GFP binding to ETR1:HA in N. benthamiana leaves. Details: species or system Arabidopsis. The following applies: 25 nM synthetic PLS(FL), 0.5 μM CuSO4, 50 μM MG-132, 30 min before tissue harvest. The source says: To investigate the interaction between the PLS peptide and the ethylene receptor ETR1, two DNA constructs were created by Gateway cloning. The […] PLS gene (without the stop codon) was inserted into the pEarlyGate103 (pEG103) destination vector, which contained the pro35S promoter and a C-terminal GFP tag, to produce a vector containing pro35S::PLS:GFP DNA. The ETR1 cDNA was inserted into the pEarlyGate301 (pEG301) vector to create a pro35S::ETR1:HA construct to express an ETR1 protein with a C-terminal HA tag. pro35S::GFP was used as a control. The primers used to clone ETR1 and PLS are found in supplemental Table 9.
Constructs were transiently expressed in N. benthamiana (tobacco) leaves as described previously ([Voinnet et al., 2003]). Experiments were replicated up to five times. Competent Agrobacterium tumefaciens GV3101 cells were transformed with the desired plasmid containing the gene of interest and injected with a syringe. The plants were approximately 7–10 weeks old; the chosen leaves were healthy and 3–6 cm in length, and 3 to 4 leaves were infiltrated with each construct. […]
SDS–PAGE was used to separate protein fragments. The complexed proteins from the pulldown assay were analyzed on 10%–12% acrylamide gels. […] The horseradish peroxidase conjugated to the secondary antibody was detected using X-ray film. […]

Data set [2] addresses T1, ETR1^306-738 (Arabidopsis thaliana, UniProt P49333).
T1 construct: made in house
T1 sequence (P49333 306-738): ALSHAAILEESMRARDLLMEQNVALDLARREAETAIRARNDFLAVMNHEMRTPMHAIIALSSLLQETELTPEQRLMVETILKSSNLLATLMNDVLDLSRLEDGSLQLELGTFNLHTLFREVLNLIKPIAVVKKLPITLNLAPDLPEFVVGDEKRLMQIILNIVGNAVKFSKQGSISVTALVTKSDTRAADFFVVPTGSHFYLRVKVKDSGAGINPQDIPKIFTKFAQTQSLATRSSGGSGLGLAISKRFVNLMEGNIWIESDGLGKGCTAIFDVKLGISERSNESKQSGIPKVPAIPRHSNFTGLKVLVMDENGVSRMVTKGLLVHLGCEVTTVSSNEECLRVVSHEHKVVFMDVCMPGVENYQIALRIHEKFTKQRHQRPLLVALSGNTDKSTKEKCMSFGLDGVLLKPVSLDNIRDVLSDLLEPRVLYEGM
Briefly: Microscale thermophoresis, PLS binding to ETR1 lacking the transmembrane domain. The settings on record: MST, as full-length; ETR1^306-738 lacking N-terminal transmembrane domain; listed as PLS. How it is done: Fluorescently labeled ETR1 truncation mutants ([Milić et al., 2018]) were added to a dilution series of synthetic PLS in 50 mM HEPES, 150 mM NaCl, and 0.015% (w/v) FosCholine 16 (pH 7.6) or 50 mM Tris, 300 mM NaCl, and 0.015% (w/v) FosCholine 16 (pH 7.6). Dissociation constants were calculated using GraphPad Prism 5.
Full-length ETR1 and its truncation mutants were purified and labeled as described previously ([Milić et al., 2018]). Synthetic PLS (94 μM) was diluted serially in 50 mM Tris and 300 mM NaCl (pH 7.6). Fluorescently labeled receptor was added at a final concentration of 50 nM. Thermophoretic behavior was measured in premium capillaries at 50% LED and 50% microscale thermophoresis power. In case of a binding event, data were fitted using GraphPad Prism 5.
(In MST a laser heats a spot of the sample, and binding alters the fluorescence response.)

The nature of data set [3]: Solubility during Cu(I) titration. The following applies: strictly anaerobic conditions. Format: physicochemical. How it is done: All Cu(I) titration experiments were carried out in an anaerobic chamber (Belle Technology) using metal-free CHELEX-treated, degassed buffers. For titration experiments with Cu(I), aqueous CuSO4 stock was quantified in advance by ICP–MS and diluted to working concentrations. The reductant NH2OH was included at a final concentration of 1 mM to maintain Cu(I) in its reduced state. Proteins were diluted in buffer to the final concentration specified in each titration in air-tight quartz cuvettes (Helma), and after addition of probe to the concentration specified, titrated with CuSO4. After each addition, solutions were thoroughly mixed and absorbance spectra recorded using a Lambda 35 UV/Vis spectrophotometer (PerkinElmer). Titration isotherm data were fitted using simulated affinity curves with DynaFit ([Kuzmič, 2009]).

The nature of data set [4]: Titration of PLS in the presence of BCA2-Cu(I) complex. It counts as binding. The following applies: PLS serially diluted from 496 µM to 214 nM; 125 µM BCA, 50 µM CuCl, 50 mM HEPES, 150 mM NaCl, 20 mM ascorbate, pH 7.6; A562 nm, n = 3. How it is done: Figure S9. Titration of PLS in the presence of BCA2-Cu(I)-Complex.
A solution of synthetic PLS in 50 µl buffer (50 mM HEPES, 150 mM NaCl, pH 7.6) was serially diluted from 496 µM to 214 nM. After the addition of 50 µl BCA2-Cu(I) buffer (50 mM HEPES, 150 mM NaCl, 20 mM ascorbate, 125 µM BCA, 50 µM CuCl, pH 7.6) the absorbance at 562 nm was measured. Discoloration of the pink BCA2-Cu(I) complex visible in the decrease of absorption at higher peptide concentration indicates […]
chelator BCA. Bars represent means ± SD, n = 3.
(1 picture or pasted object on this page, not shown here)

On to “PLS(FL): full-length 36-amino-acid PLS peptide from Arabidopsis (MKPRLCFNFRRRSISPCYISISYLLVAKLFKLFKIH)”, for which, in data set [1], the “reduction in PLS:GFP binding to ETR1:HA” value is roughly 80%. For the same substance, in data set [2], the “binding (dissociation constant)” value was “no binding was detected”. In data set [3], the solubility entry was “problems with PLS solubility”. The “competition for copper with BCA” value in data set [4] is “able to effectively compete and remove copper”.
